This passage reports Km results from article PMC9920598, “Impact of Starch Binding Domain Fusion on Activities and Starch Product Structure of 4-α-Glucanotransferase” (Molecules, 2023).

One assay has as its system T1, SBDGA-TuαGT.
T1 construct: gene malQ; E. coli; 69,562 Da; with Glucoamylase (Aspergillus niger), C-terminal CBM20 domain SBDGA
The assay can be described thus: glucose release (GOPOD), Michaelis-Menten fit. The note with it: disproportionation (maltotriose donor and acceptor); 70 °C, pH 7.0, 50 mM Hepes, 150 mM NaCl; 10 nM enzyme; read-out: SBDGA-TuaGT. The format is biochemical, Thermoproteus uzoniensis. The source says:
glucose release (GOPOD), Michaelis-Menten fit on SBDGA-TuαGT

For the next assay, the system named is T2, SBDSt1-TuαGT.
T2 construct: gene malQ; E. coli; 68,272 Da; with 4-alpha-glucanotransferase DPE2 (Solanum tuberosum), first CBM20 domain SBDSt1
The assay is described as follows: glucose release (GOPOD), Michaelis-Menten fit. The format is biochemical, Thermoproteus uzoniensis. The note with it: disproportionation (maltotriose donor and acceptor); 70 °C, pH 7.0, 50 mM Hepes, 150 mM NaCl; 10 nM enzyme; read-out: SBDSt1-TuaGT. The source says: glucose release (GOPOD), Michaelis-Menten fit on SBDSt1-TuαGT

With `OC[C@H]1O[C@H](O[C@H]2[C@H](O)[C@@H](O)[C@@H](O[C@H]3[C@H](O)[C@@H](O)C(O)O[C@@H]3CO)O[C@@H]2CO)[C@H](O)[C@@H](O)[C@@H]1O` (some centres unmarked) [maltotriose], the Km with SBDGA-TuαGT came out at 1.4 ± 0.1 µM; in the assay with SBDSt1-TuαGT it was 3.5 ± 0.2 µM.
